Source: patent US20210198277A1, “AMINE-SUBSTITUTED ARYL OR HETEROARYL COMPOUNDS” (Epizyme, Inc., priority 2016, published 2021)
pIC50: −log10 of the molar value.

biological target: T1, human EHMT2 913-1193 (Homo sapiens, UniProt Q96KQ7); test: EHMT2 enzyme assay on histone peptide substrate (EHMT2 PEP); format: biochemical; conditions: Table VII; read-out: EHMT2 PEP IC50
T1 construct: recombinant purified human EHMT2 913-1193, Viva; purchased Viva
T1 sequence (Q96KQ7 913-1193): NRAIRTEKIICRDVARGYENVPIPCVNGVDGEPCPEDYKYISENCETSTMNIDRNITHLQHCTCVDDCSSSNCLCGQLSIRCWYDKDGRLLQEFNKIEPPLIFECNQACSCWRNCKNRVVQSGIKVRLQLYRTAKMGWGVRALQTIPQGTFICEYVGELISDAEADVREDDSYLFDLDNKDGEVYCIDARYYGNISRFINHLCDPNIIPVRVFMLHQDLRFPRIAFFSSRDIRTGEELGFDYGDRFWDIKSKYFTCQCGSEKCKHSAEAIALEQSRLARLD
How it was run: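 Compounds (10-point, 3-fold dilutions, top 50 μM final, 2% DMSO) preincubated 30 min with 0.031 nM EHMT2 in 20 mM Bicine pH 7.5, 0.002% Tween 20, 0.005% gelatin, 1 mM TCEP. Biotinylated histone peptide methylated with ^3H-SAM 60 min at room temperature. Quenched with unlabeled SAM; product captured on streptavidin Flashplate, scintillation counted.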

pIC50	Structure (SMILES)
> 7.00	CNc1cc(C)nc(Nc2ccc(OC)c(OC[C@H](O)CN3CCCC3)c2)n1 [Compound 1045]
6.00 to 7.00	CNc1cc(C)nc(Nc2ccc(OC)c(OC[C@H](O)CN(C)C)c2)n1 [Compound 1112]
< 5.00	CNc1cc(C)nc(Nc2ccc(C)c(C(=O)NCc3ccon3)c2)n1 [Compound 1114]
6.00 to 7.00	CNc1cc(C)nc(Nc2ccc(OC)c(OC[C@@H](O)CN3CCCC3)c2)n1 [Compound 1044]
5.00 to 6.00	CNc1cc(C)nc(Nc2ccc(OC)c(CNCCNC3CCC3)c2)n1 [Compound 1109]
6.00 to 7.00	CNc1cc(C)nc(Nc2cnc(OC)c(CNCCN3CCC3)c2)n1 [Compound 1110]

same assay, conditions: recombinant human EHMT2 913-1193, histone H3 1-15 peptide, balanced conditions; read-out: EHMT2 PEP (IC50 μM)

IC50 [µM]	Structure (SMILES)
< 0.1	COc1cc2c(C3CCN(C)CC3)cc(C)nc2cc1OCCCN1CCCC1 [Compound 536]
< 0.1	CNc1cc(C)nc(Nc2ccc(OC)c(OCCCN3CCC3)c2)n1 [Compound 490]
< 0.1	CNc1cc(C2CCOCC2)c2cc(OC)c(OCCCN3CCCC3)cc2n1 [Compound 524, 6-methoxy-N-methyl-4-(oxan-4-yl)-7-[3-(pyrrolidin-1-yl)propoxy]quinolin-2-amine]
0.1 to 1	CCc1ccc(Nc2nc(C)cc(NC)n2)cc1OCCCN1CCCC1 [Compound 497]
< 0.1	CNc1cc(C)nc(Nc2ccc(OC)c(OCC3CCN(CCO)C3)c2)n1 (centres unmarked) [Compound 461, 2-(3-((2-methoxy-5-((4-methyl-6-(methylamino)pyrimidin-2-yl)amino)phenoxy)methyl)pyrrolidin-1-yl)ethan-1-ol]
0.1 to 1	COc1cnc(Nc2cc(NCC3CCOCC3)cc(C)n2)cc1OCCCN1CCCC1 [Compound 464, N^2-(5-methoxy-4-(3-(pyrrolidin-1-yl)propoxy)pyridin-2-yl)-6-methyl-N^4-((tetrahydro-2H-pyran-4-yl)methyl)pyridine-2,4-diamine]
1 to 10	CNc1cc(C)nc(Nc2cnc(C3CC3)c(OCCCN3CCCC3)c2)n1 [Compound 516]
0.1 to 1	CNc1cc(C)nc(Nc2ccc(OC)c(OC[C@@H]3CN(C)C[C@H]3O)c2)n1 [Compound 491]
1 to 10	CNc1cc(C)nc(Nc2ccc(OC)c([C@H]3C[C@@H]3CN(C)C)c2)n1 [Compound 487]
0.1 to 1	CNc1cc(Nc2cc(OCCCN3CC4CC4C3)c(OC)cn2)nc(C)c1F (centres unmarked) [Compound 509]
< 0.1	CNc1cc(C(C)C)nc(Nc2ccc(OC)c(OCCCN3CCCC3)c2)n1 [Compound 483]
0.1 to 1	CNc1cc(C)nc(Nc2ccc(OC)c(OC[C@H]3CCN(C4CC4)C3)c2)n1 (single isomer, unassigned) [Compound 482]
> 10	COc1ccc(Nc2nc(C)cc3[nH]ccc23)cc1OCCCN1CCCC1 [Compound 486]
1 to 10	CCn1nc(Nc2nccc3[nH]ccc23)cc1COCCN1CCCC1 [Compound 471]
1 to 10	CCc1ncc(Nc2nc(C)cc(NC)n2)cc1OCCCN1CCCC1 [Compound 515]
0.1 to 1	CNc1cc(C)nc(Nc2ccc(OC)c(OCC3CCCN(C4CC4)C3)c2)n1 (centres unmarked) [Compound 517a]
> 10	CCCCNc1nccc(NC)n1 [Compound 543, N^2-butyl-N^4-methylpyrimidine-2,4-diamine]
> 10	CNc1ccnc(Nc2ccc(OC)c(OCCOC3CC3)c2)n1 [Compound 453, N^2-(3-(2-cyclopropoxyethoxy)-4-methoxyphenyl)-N^4-methylpyrimidine-2,4-diamine]
0.1 to 1	CNc1cc(C)nc(Nc2cnc(OC)c(OCCCN3CC4CC4C3)c2)n1 (centres unmarked) [Compound 514]

IC50 [µM]	Structure (SMILES)
1 to 10	CNc1cc(C2CCOCC2)nc(Nc2ccc(OC)c(OCCCN3CCCC3)c2)n1 [Compound 459, N^2-(4-methoxy-3-(3-(pyrrolidin-1-yl)propoxy)phenyl)-N^4-methyl-6-(tetrahydro-2H-pyran-4-yl)pyrimidine-2,4-diamine]
0.1 to 1	COc1cnc(Nc2nc(C)cc3[nH]ccc23)cc1OC[C@H]1CCN(C2CC2)C1 [Compound 494a]
1 to 10	CNc1cc(C)nc(Nc2ccc(OC)c(OCCC3CN(C)C3)c2)n1 [Compound 508]
< 0.1	COc1cnc(Nc2nc(C)cc3[nH]ncc23)cc1OCCCN1CCCC1 [Compound 460, N-(5-methoxy-4-(3-(pyrrolidin-1-yl)propoxy)pyridine-2-yl)-6-methyl-1H-pyrazolo[4,3-c]pyridine-4-amine]
0.1 to 1	CNc1cc(C)nc(Nc2ccc(OC)c([C@H]3C[C@H]3CN(C)C)c2)n1 [Compound 488]
1 to 10	CNc1cc(C)nc(Nc2ccc(OC)c(OC[C@H]3C[C@@H](N(C)C)C3)c2)n1 [Compound 468]
< 0.1	CNc1cc(C)nc(Nc2ccc(OC)c(OCCCN3CC4CC4C3)c2)n1 (centres unmarked) [Compound 506]
1 to 10	CNc1cc(C)nc(Nc2cc(Cl)c(OC)c(OCCCN3CCCC3)c2)n1 [Compound 496]
< 0.1	CNc1cc(C)nc(Nc2ccc(OC)c(OC[C@@H]3CCN(C4CC4)C3)c2)n1 (single isomer, unassigned) [Compound 481]
< 0.1	CNc1cc(C)nc(Nc2ccc(OC)c(OCCCN(C)C3CC3)c2)n1 [Compound 463, N^2-(3-(3-(cyclopropyl(methyl)amino)propoxy)-4-methoxyphenyl)-N^4,6-dimethylpyrimidine-2,4-diamine]
0.1 to 1	COc1cnc(Nc2nc(C)cc3[nH]ccc23)cc1OC[C@@H]1CCN(C2CC2)C1 [Compound 495]
< 0.1	CNc1nc(C2CCN(C)CC2)c2cc(OC)c(OCCCN3CC4CC4C3)cc2n1 (centres unmarked) [Compound 532]
< 0.1	CNc1cc(C)nc(Nc2cnc(OC)c(OC[C@@H]3CCN(C4CC4)C3)c2)n1 [Compound 512]
> 10	CNc1ccnc(Nc2ccc(OC)c(OCc3nnc(C4CC4)[nH]3)c2)n1 [Compound 478]
< 0.1	CNc1cc(C)nc(Nc2ccc(OC)c(OCC3CCN(C4CC4)C3)c2)n1 (centres unmarked) [Compound 457]
< 0.1	COc1cc2c(C3CCN(C)CC3)nc(NC3CCCC3)nc2cc1OCCCN1CCCC1 [Compound 529]
1 to 10	CNc1nc(C2CCCC2)c2cc(OC)c(OCCCN3CCCC3)cc2n1 [Compound 518, 4-cyclopentyl-6-methoxy-N-methyl-7-(3-(pyrrolidin-1-yl)propoxy)quinazolin-2-amine]
1 to 10	CNc1cc(Nc2cc(OC[C@@H]3CCN(C)C3)c(OC)cn2)nc(C)n1 [Compound 473]
0.1 to 1	CNc1cc(C)nc(Nc2cc(OC[C@@H]3CCN(C)C3)c(OC)cn2)c1 [Compound 475]

IC50 [µM]	Structure (SMILES)
1 to 10	CNc1cc(C)nc(Nc2ccc(OC)c(OCCC3CCN(C)C3)c2)n1 (centres unmarked) [Compound 503]
1 to 10	CNc1nc(C2CCCCC2)c2cc(OC)c(OCCCN3CCCC3)cc2n1 [Compound 523, 4-cyclohexyl-6-methoxy-N-methyl-7-(3-(pyrrolidin-1-yl)propoxy)quinazolin-2-amine]
0.1 to 1	CNc1ccnc(Nc2ccc(OC)c(OC[C@@H]3CN(C)C[C@@H]3C)c2)n1 [Compound 477]
< 0.1	CNc1cc(C)nc(Nc2ccc(OC)c(OCCCN3CC(O)C3)c2)n1 [Compound 465, 1-(3-(2-methoxy-5-((4-methyl-6-(methylamino)pyrimidin-2-yl)amino)phenoxy)propyl)azetidin-3-ol]
> 10	CNc1cc(C)nc(Nc2ccc(OC)c(OC3CCN(C4CC4)CC3)c2)n1 [Compound 466, N^2-(3-((1-cyclopropylpiperidin-4-yl)oxy)-4-methoxyphenyl)-N^4,6-dimethylpyrimidine-2,4-diamine]
0.1 to 1	CNc1cc(C)nc(Nc2ccc(OC)c(OC[C@@H]3CN(C)C[C@@H]3O)c2)n1 [Compound 492]
< 0.1	CNc1nc(C2CCN(C(C)C)CC2)c2cc(OC)c(OCCCN3CCCC3)cc2n1 [Compound 530]
> 10	CNc1cc(C)nc(Nc2ccc(OC)c(OC[C@H]3C[C@H](N(C)C)C3)c2)n1 [Compound 470]
< 0.1	CNc1nc(C2CCN(CCO)CC2)c2cc(OC)c(OCCCN3CCCC3)cc2n1 [Compound 533]
1 to 10	CNc1nc(C2=CCOCC2)c2cc(OC)c(OCCCN3CCCC3)cc2n1 [Compound 522]
0.1 to 1	CNc1cc(C)nc(Nc2ccc(OC)c(OCCCN3CCCC3C)c2)n1 (centres unmarked) [Compound 504, N^2-(4-methoxy-3-(3-(2-methylpyrrolidin-1-yl)propoxy)phenyl)-N^4,6-dimethylpyrimidine-2,4-diamine]
1 to 10	CNc1cc(C)nc(Nc2ccc(OC)c(OCC3CCN(C4CCCC4)C3)c2)n1 (centres unmarked) [Compound 456, N^2-(3-((1-cyclopentylpyrrolidin-3-yl)methoxy)-4-methoxyphenyl)-N^4,6-dimethylpyrimidine-2,4-diamine]
< 0.1	COc1cc2c(C3CCN(C)CC3)nc(N3CCCC3)nc2cc1OCCCN1CCCC1 [Compound 527]
1 to 10	CNc1nc(C2CC(C)(C)NC(C)(C)C2)c2cc(OC)c(OCCCN3CCCC3)cc2n1 [Compound 534]
< 0.1	COc1cnc(Nc2nccc3[nH]ccc23)cc1OCCCN1CC2CC2C1 (centres unmarked) [Compound 507]
0.1 to 1	CNc1cc(C)nc(Nc2ccc(OC)c(OC[C@H]3CCCN(C4CC4)C3)c2)n1 [Compound 517b]
> 10	CNc1ccnc(Nc2ccc(OC)c(OCc3ncn(C4CC4)n3)c2)n1 [Compound 480]
1 to 10	CNc1nc(C2CCOCC2)c2cc(OC)c(OCCCN3CCCC3)cc2n1 [Compound 521]
